Publication PMC8348110, “A Novel Peptide Derived from the Transmembrane Domain of Romo1 Is a Promising Candidate for Sepsis Treatment and Multidrug-Resistant Bacteria” (International Journal of Molecular Sciences, 2021)
Values after ≈ are worked out from the molar mass of the structure shown. Residues, ends and D or L forms follow the SMILES beside them.

Tests used:
[1] = system: Methicillin-resistant S. aureus (MRSA) ATCC 33591; assay type: cell-based, Staphylococcus aureus; settings: ATCC 33591, 1 h
Protocol: (§1) The minimum bactericidal concentration (MBC) was determined as previously described with minor modifications. Briefly, bacteria were cultured in the mid-log phase and diluted to 5 × 10^5 colony-forming unit (CFU)/mL in 10 mM sodium phosphate buffer (pH 7.4) with a 1% volume of TS broth. They were incubated for 1 h with various peptides which were two-fold diluted serially from 64 μg/mL to 0 μg/mL concentrations in a 96-well plate. The samples were inoculated TS agar plate and incubated overnight at 37 °C. The value of MBC was determined at the lowest concentrations at which no colonies were identified.
(§2) We used the CFU counting method to measure antibacterial activity, with all bacteria cultured to the mid-log phase in an appropriate broth medium. Bacterial CFUs were counted after overnight culture at 37 °C on TS or LB agar plates. The MBC value and antibacterial activity in blood components were determined as previously described. Mouse and human whole blood were collected and diluted with PBS (pH 7.4) to measure the ex vivo antibacterial activity of AMPR-22. For that test, AMPR-22 (10 μg) was added to each whole blood solution and incubated at 37 °C with shaking at 200 rpm. At each time point, it was incubated with bacteria (1 × 10^3 CFU) for 30 min. Each sample was inoculated on an LB agar plate, and CFU counting was performed. To measure the in vivo activity of AMPR-22, 1 × 10^8 CFU of bacteria were injected into BALB/c mice, and an hour later, 10 mg/kg of the test peptides were injected. Blood samples were collected by tail cut, serially diluted with PBS (pH 7.4), and inoculated on LB-agar plates, followed by CFU counting. To estimate the functional half-life of AMPR-22, 40 mg/kg of each tested peptide were injected into mice. Whole blood sampling was performed by cardiac puncture, and the plasma was isolated by centrifugation (2000× g, 15 min). The isolated plasma was incubated with bacteria (1 × 10^3 CFU) for an hour, and then the CFU counting method was performed.

[2] = system: Pseudomonas aeruginosa ATCC 27853; assay type: cell-based; settings: ATCC 27853, 1 h
Protocol: as §1, §2

[3] = system: Staphylococcus aureus ATCC 29213; assay type: cell-based; settings: ATCC 29213, 1 h, pH 7.4
Protocol: as §1, §2

[4] = system: Carbapenem-resistant P. aeruginosa (CRPA), clinical isolate; assay type: cell-based, Pseudomonas aeruginosa; settings: 1 h
From the text: Acinetobacter baumannii (ATCC 19606), B. subtilis (ATCC 6633), E. aerogenes (ATCC 13048), E. coli (ATCC 25922), E. faecalis (ATCC 19433), E. faecium (ATCC 19434), K. pneumoniae (ATCC 13883), P. aeruginosa (ATCC 27853), S. aureus (ATCC 29213), S. sindenensis (ATCC 23963), and MRSA (ATCC 33591) were purchased from the American Type Culture Collection (ATCC; Gaithersburg, MD, USA). Streptococcus pneumoniae (NCCP 14585), vancomycin-resistant E. faecium (NCCP 11522), and vancomycin-resistant S. aureus (NCCP 15872) were purchased from the National Culture Collection for Pathogens (NCCP; Cheongju, Korea). The isolation and use of carbapenem-resistant bacterial strains from a patient were approved (2015AN0129) by the Institutional Review Board (IRB) of Korea University Hospital. CRPA, CRKP, and CRAB were clinically isolated in Korea University Hospital (Seoul, Korea). CRPA was confirmed to be resistant to piperacillin, piperacillin-tazobactam, ceftazidime, imipenem, meropenem, gentamicin, amikacin, and ciprofloxacin. CRAB was confirmed to be resistant to piperacillin, piperacillin-tazobactam, cefepime, ceftazidime, imipenem, meropenem, gentamicin, amikacin, and ciprofloxacin. CRKP was confirmed to be resistant to piperacillin-tazobactam, cefepime, ceftazidime, imipenem, gentamicin, and ciprofloxacin. All strains were stored at –80 °C in 50% glycerol and 50% Luria-Bertani (LB) or tryptic soy (TS) broth, grown on LB or TS plates, and aerated at 37 °C.
as §1, §2

Row | SMILES | MBC Value, MRSA [1] [µg/mL] | MBC Value, P. aeruginosa [2] [µg/mL] | MBC Value, S. aureus [3] [µg/mL] | MBC Value, CRPA [4] [µg/mL]
1 | CC[C@H](C)[C@H](NC(=O)CNC(=O)[C@H](CCSC)NC(=O)CNC(=O)[C@@H](NC(=O)[C@H](C)NC(=O)[C@H](CCSC)NC(=O)[C@H](Cc1ccccc1)NC(=O)[C@@H](NC(=O)[C@H](Cc1ccccc1)NC(=O)[C@H](CCCCN)NC(=O)CNC(=O)CNC(=O)[C@H](CCCCN)NC(=O)[C@H](CCCCN)NC(=O)[C@H](CCSC)NC(=O)[C@H](CCSC)NC(=O)[C@H](CCCCN)NC(=O)[C@@H](N)CCCCN)[C@@H](C)O)[C@@H](C)CC)C(=O)N[C@@H](CCCNC(=N)N)C(=O)O [d68G] (H-KKMMKKGGKFTFMAIGMGIR-OH) | 4 (≈ 1.77 µM) | 4 (≈ 1.77 µM) | 4 (≈ 1.77 µM) | 8 (≈ 3.54 µM)
2 | CC[C@H](C)[C@H](NC(=O)CNC(=O)[C@H](CCSC)NC(=O)CNC(=O)[C@@H](NC(=O)[C@H](C)NC(=O)[C@H](CCSC)NC(=O)[C@H](Cc1ccccc1)NC(=O)CNC(=O)[C@H](Cc1ccccc1)NC(=O)[C@H](CCCCN)NC(=O)CNC(=O)CNC(=O)[C@H](CCCCN)NC(=O)[C@H](CCCCN)NC(=O)[C@H](CCSC)NC(=O)[C@H](CCSC)NC(=O)[C@H](CCCCN)NC(=O)[C@@H](N)CCCCN)[C@@H](C)CC)C(=O)N[C@@H](CCCNC(=N)N)C(=O)O [d69T] (H-KKMMKKGGKFGFMAIGMGIR-OH) | 1 (≈ 0.451 µM) | 4 (≈ 1.8 µM) | 2 (≈ 0.902 µM) | 4 (≈ 1.8 µM)
3 | CC[C@H](C)[C@H](NC(=O)CNC(=O)[C@H](CCSC)NC(=O)CNC(=O)[C@@H](NC(=O)[C@H](C)NC(=O)[C@H](Cc1ccccc1)NC(=O)[C@@H](NC(=O)CNC(=O)[C@H](Cc1ccccc1)NC(=O)[C@H](CCCCN)NC(=O)CNC(=O)CNC(=O)[C@H](CCCCN)NC(=O)[C@H](CCCCN)NC(=O)[C@H](CCSC)NC(=O)[C@H](CCSC)NC(=O)[C@H](CCCCN)NC(=O)[C@@H](N)CCCCN)[C@@H](C)O)[C@@H](C)CC)C(=O)N[C@@H](CCCNC(=N)N)C(=O)O [d71M] (H-KKMMKKGGKFGTFAIGMGIR-OH) | 4 | 2 | 4 | 8
4 | CC[C@H](C)[C@H](NC(=O)CNC(=O)[C@H](CCSC)NC(=O)CNC(=O)[C@@H](NC(=O)[C@H](CCSC)NC(=O)[C@H](Cc1ccccc1)NC(=O)[C@@H](NC(=O)CNC(=O)[C@H](Cc1ccccc1)NC(=O)[C@H](CCCCN)NC(=O)CNC(=O)CNC(=O)[C@H](CCCCN)NC(=O)[C@H](CCCCN)NC(=O)[C@H](CCSC)NC(=O)[C@H](CCSC)NC(=O)[C@H](CCCCN)NC(=O)[C@@H](N)CCCCN)[C@@H](C)O)[C@@H](C)CC)C(=O)N[C@@H](CCCNC(=N)N)C(=O)O [d72A] (H-KKMMKKGGKFGTFMIGMGIR-OH) | 2 (≈ 0.89 µM) | 2 (≈ 0.89 µM) | 2 (≈ 0.89 µM) | 4 (≈ 1.78 µM)
5 | CC[C@H](C)[C@H](NC(=O)CNC(=O)[C@H](CCSC)NC(=O)[C@@H](NC(=O)[C@H](C)NC(=O)[C@H](CCSC)NC(=O)[C@H](Cc1ccccc1)NC(=O)[C@@H](NC(=O)CNC(=O)[C@H](Cc1ccccc1)NC(=O)[C@H](CCCCN)NC(=O)CNC(=O)CNC(=O)[C@H](CCCCN)NC(=O)[C@H](CCCCN)NC(=O)[C@H](CCSC)NC(=O)[C@H](CCSC)NC(=O)[C@H](CCCCN)NC(=O)[C@@H](N)CCCCN)[C@@H](C)O)[C@@H](C)CC)C(=O)N[C@@H](CCCNC(=N)N)C(=O)O [d74G] (H-KKMMKKGGKFGTFMAIMGIR-OH) | 4 (≈ 1.77 µM) | 4 (≈ 1.77 µM) | 4 (≈ 1.77 µM) | 8 (≈ 3.54 µM)
